Assay: xn = mol fraction of the nth substance listed
Details: 101 kPa, Liquid; for viscosity: Capillary tube (Ostwald / Ubbelohde) method; for mass density: Vibrating tube method

OCCOCCO [diethylene glycol] + CCC(C)O
Details | mass density, 298.15 K [kg/m3] | mass density, 303.15 K [kg/m3] | mass density, 308.15 K [kg/m3] | mass density, 313.15 K [kg/m3] | viscosity, 298.15 K [mPa·s] | viscosity, 303.15 K [mPa·s] | viscosity, 308.15 K [mPa·s] | viscosity, 313.15 K [mPa·s]
x1 = 0.0808 | 829.4 | 824.8 | 819.9 | 815.3 | 3.69 | – | – | –
x1 = 0.0833 | – | – | – | – | – | 3.1 | 2.65 | 2.22
x1 = 0.1598 | 855.3 | 850.5 | 845.5 | 840.7 | 4.42 | – | – | –
x1 = 0.161 | – | – | – | – | – | 3.69 | 3.17 | 2.74
x1 = 0.2398 | 881.3 | 876.3 | 871.2 | 866.3 | 5.33 | – | – | –
x1 = 0.2402 | – | – | – | – | – | 4.41 | 3.77 | 3.31
x1 = 0.3494 | 916.4 | 911.3 | 906.2 | 901.2 | 6.94 | – | – | –
x1 = 0.3498 | – | – | – | – | – | 5.69 | 4.77 | 4.25
x1 = 0.4399 | 944.9 | 939.8 | 934.7 | 929.8 | 8.61 | – | – | –
x1 = 0.441 | – | – | – | – | – | 7.03 | 5.79 | 5.16
x1 = 0.5591 | 981.9 | 977.8 | 971.9 | 967.1 | 11.34 | – | – | –
x1 = 0.5609 | – | – | – | – | – | 9.25 | 7.44 | 6.62
x1 = 0.6498 | – | – | – | – | – | 11.31 | 8.98 | 7.93
x1 = 0.6501 | 1009.7 | 1004.9 | 1000.1 | 995.4 | 13.86 | – | – | –
x1 = 0.7398 | – | – | – | – | – | 13.64 | 10.74 | 9.42
x1 = 0.7399 | 1036.7 | 1032.3 | 1027.6 | 1023.1 | 16.72 | – | – | –
x1 = 0.8499 | 1069.2 | 1065.1 | 1060.9 | 1056.8 | 20.75 | – | – | –
x1 = 0.8501 | – | – | – | – | – | 16.88 | 13.24 | 11.5
x1 = 0.9399 | 1095.3 | 1091.7 | 1087.9 | 1084.2 | 24.46 | – | – | –
x1 = 0.9405 | – | – | – | – | – | 19.8 | 15.56 | 13.42
x1 = 1 | 1112.4 | 1109.1 | 1105.6 | 1102.3 | 27.15 | 21.87 | 17.26 | 14.81

OCCOCCO [diethylene glycol] + CC(C)O
Details | mass density, 298.15 K [kg/m3] | mass density, 303.15 K [kg/m3] | mass density, 308.15 K [kg/m3] | mass density, 313.15 K [kg/m3] | viscosity, 298.15 K [mPa·s] | viscosity, 303.15 K [mPa·s] | viscosity, 308.15 K [mPa·s] | viscosity, 313.15 K [mPa·s]
x1 = 0.0808 | 814.9 | 810.2 | 805.2 | 800.5 | 2.71 | 2.54 | 2.22 | 1.9
x1 = 0.1599 | 846.9 | 841.8 | 836.5 | 831.7 | 3.59 | 3.38 | 2.89 | 2.52
x1 = 0.2398 | 877.8 | 872.4 | 867 | 862 | 4.73 | 4.35 | 3.63 | 3.25
x1 = 0.3501 | 918.3 | 912.7 | 907.3 | 902.2 | 6.67 | 5.93 | 4.83 | 4.41
x1 = 0.4399 | 949.6 | 943.9 | 938.5 | 933.4 | 8.59 | 7.44 | 6 | 5.49
x1 = 0.5596 | 988.8 | 983.3 | 978.1 | 973.1 | 11.59 | 9.8 | 7.84 | 7.09
x1 = 0.6499 | 1016.8 | 1011.5 | 1006.4 | 1001.4 | 14.2 | 11.84 | 9.47 | 8.44
x1 = 0.7396 | 1043.2 | 1038.2 | 1033.4 | 1028.8 | 17.08 | 14.1 | 11.27 | 9.89
x1 = 0.8501 | 1073.9 | 1069.5 | 1065.2 | 1061.1 | 21.04 | 17.19 | 13.7 | 11.84
x1 = 0.9402 | 1097.4 | 1093.8 | 1089.8 | 1086.2 | 24.61 | 19.94 | 15.82 | 13.58
x1 = 1 | 1112.4 | 1109.1 | 1105.6 | 1102.3 | 27.15 | 21.87 | 17.26 | 14.81

Reference: the NIST ThermoML archive (doi:10.1021/je300827f)
